Source: patent US6706686B2, “Inhibition of histone deacetylase as a treatment for cardiac hypertrophy” (The Regents of the University of Colorado, priority 2001, dated 2004)
Entries after “also recorded” stand apart in the source; their conditions may differ.

What was measured:
[1] = system: CMV-Lac Z reporter in neonatal rat cardiomyocytes; assay: CMV-Lac Z reporter (specificity control); format: cell-based; conditions: inhibitor alone or together with phenylephrine
Protocol: (§1) FIGS. 3A-D. HDAC inhibitors block the activation of ANF reporter by phenylphrine without cytotoxicity. Neonatal rat cardiomyocytes were co-transfected with a total of 1 μg of the mouse 3 kb ANF promoter fragment and CMV-Lac Z plasmids. (FIG. 3A) The ANF promoter is minimally active in unstimulated cardiomyocytes. […] (FIG. 3B) Lac Z expression by the constitutive promoter CMV. Treatment with HDAC inhibitors augmented CMV activity with and without phenylephrine co-treatment. (FIGS. 3C and 3D) The graphs show the measurements of adenylate kinase activity remains constant in the medium after […] of culturing cardiomyocytes in the absence or presence of hypertrophic stimulants FBS, PE or ET-1.
(§2) Transcription assay. Twenty-four hours after plating, cells were transfected with total of 1 μg/ml for 5 hrs using Lipofectamine Plus reagent (Invitrogen, Carlsbad, Calif.). Transfected cells were incubated 24 hrs then treated for an additional 24 hrs. Cells were lysed and their lysates assayed with the Luciferase Assay System (Promega, Madison, Wis.) for luminescence using Lucysoft 2 luminometer (Rosys Anthos, New Castle, Del.).

[2] = system: SERCA, α-/β-MyHC, ANP, BNP, cardiac α-actin mRNA in cardiac myocytes; assay: Myocyte-specific mRNA expression by RNase protection assay; format: cell-based, rat
Protocol: FIGS. 1A-C. TSA alters agonist-induced gene repression. Cultured cardiac myocytes were treated with PE (20 μmol/L) or IL-1 (1 ng/mL) for 48 hrs. TSA (30 nmol/L) was added 30 min. prior to treatment with PE or IL-1. Myocyte-specific mRNA expression (SERCA2a (FIG. 1A), αMyHC (FIG. 1B), βMyHC (FIG. 1C) was assayed in 5 μg total RNA by RNase protection assay. Mean data are from 4 cultures, and are presented as % of control after normalization to GAPDH signal.
(§3) Cell culture. Ventricular myocytes from one-day-old rats were plated at low density in MEM with 5% calf serum, and studied in serum-free MEM. Cultures were treated with PE (#P6126, Sigma-Aldrich Corp., St. Louis, Mo.), IL-1 (#501-RL, R&D Systems, Minneapolis, Minn.), TSA (#GR-309, BIOMOL Research Laboratories, Inc., Plymouth Meeting, Pa.) or their vehicles (ascorbic acid for PE; bovine serum albumin for IL-1; dimethyl sulfoxide for TSA).
(§4) Quantification of myocyte hypertrophy and myocyte-specific mRNA expression. Growth of cultured myocytes was quantified by content of radiolabeled protein after continuous incubation with ^14C-phenylalanine. For evaluation of the myocyte gene program, total RNA was extracted from cells with TRIZol (GIBCO, Carlsbad, Calif.) and used in RNase protection assay with probes for SERCA, α-/β-MyHC, ANP, BNP, and cardiac α-actin. All samples also included glyceraldehyde phosphate dehydrogenase (GAPDH) as an internal control for RNA loading.

[3] = system: mouse model; conditions: Takahashi et al, 1996; cited from earlier work
[4] = system: cultured cardiac myocytes; assay: Myocyte growth by 14C-phenylalanine radiolabeled protein content; format: cell-based, rat
Protocol: as §3, §4

[5] = system: SERCA, αMyHC, βMyHC promoters in cultured myocytes; assay: CAT reporter assay of myocyte-specific promoters; format: cell-based, rat; conditions: TSA 30 nmol/L
Protocol: FIGS. 2A-D. Over-expression of HDACs repress muscle-specific promoters. Cultured myocytes were transfected for 72 hrs. with expression vectors (2 μg per ˜3×10^5 cells) for Flag-tagged HDAC1, 4, 5 (or its backbone vector) and CAT reporter (5 μg) constructs for SERCA (FIG. 2A), αMyHC (FIG. 2B), βMyHC (FIGS. 2C and 2D) genes, plus SV40-driven secreted alkaline phosphatase (SEAP 1 μg, Clontech). TSA was used at 30 nmol/L, and added just after the transfection. PE […] (20 μmol/L) was added 24 hrs. later and CAT assays performed after an additional 48 hours. Mean data are from n=3 different cultures, and are presented as % of pCMV after normalization to SEAP activity in the media. Over-expression of HDAC was confirmed by Western blot for Flag.
Transfection. Myocytes were transfected using calcium-phosphate co-precipitation with cytomegalovirus promoter driven Flag-tagged expression vectors for HDACs 1, 4, 5 and reporter plasmids carrying the rat promoters for SERCA (3500 bp), αMyHC (2900 bp), or βMyHC (3300 bp) driving expression […] of the chroramphenicol acetyltransferase (CAT) gene. Reporter expression was evaluated after 48 hours as described previously with corection for transfection efficiency with SEAP (BD Biosciences Clontech, Palo Alto, Calif.). Over-expression of HDACs was confirmed by Western blot analyses using anti-Flag M2 antibody (Sigma-Aldrich Corp. St. Louis, Mo.).

[6] = system: ANF promoter in neonatal rat cardiomyocytes; assay: ANF promoter transcription (luciferase) assay; format: cell-based
Protocol: as §1
Cardiomyocyte isolation. Hearts were harvested from 15-day timed-pregnant female Sprague-Dawley rats (Harlan, Houston, Tex.). After mincing in phosphate-buffered saline, cardiomyocytes were isolated from successive digestion fractions of 0.1% (w/v) Pancreatin (Sigma, St. Louis, Mo.) solution. Fractions were collected; resuspended in plating medium, pooled; and then plated for 2 hours to separate fibroblasts from cardiomyocyte population. Suspended cells were recollected and plated in 6-well dishes at 1×10^6 cells/well for transfection and immunofluorescence experiments, and 2×10^6 cells in 10 cm dishes for RNA analysis.
as §2

For `CC(/C=C/C(=O)NO)=C\[C@@H](C)C(=O)c1ccc(N(C)C)cc1` [TSA, Trichostatin A], the “transcriptional activity of CMV-Lac Z reporter” value [1] was “increased the transcriptional activity of the CMV-Lac Z reporter”, the “αMyHC (so in the source) expression in presence of IL-1 alone” value ([2]; IL-1 alone) was “increased αMyHC expression” and the “IL-1 suppression of PE induction of αMyHC (so in the source)” value ([2]; PE/IL-1 co-treated cells) was “reversed the IL-1 effect”. For the same molecule, the “basal SERCA2a mRNA expression” value ([2]; TSA 30 nmol/L, 48 hrs) was “increased the basal expression”, the “basal αMyHC mRNA expression” value ([2]; TSA 30 nmol/L, 48 hrs) was “increased the basal expression” and the “reversal of αMyHC repression in IL-1 treated (or co-treated) cells” value ([2]; TSA pre-treatment, IL-1) was “less prominent”. For the same molecule, the “PE effect on αMyHC expression” value ([2]; TSA pre-treatment, PE) was “nearly complete reversal of the PE effect”, the “repression of SERCA expression by hypertrophic stimuli” value ([2]; TSA pre-treatment, PE 20 μmol/L or IL-1 1 ng/mL) was “substantial reversal in the repression of SERCA expression” and the “gene expression of cardiac α-actin, ANP, or BNP” value ([2]; any hypertrophic treatment condition) was “did not affect gene expression”. The “basal expression or PE-induction of αMyHC (so in the source)” value ([2]; basal or PE) was “had no effects on either the basal expression or PE-induction”, the immunosuppression [3] was “induces immunsuppression” and the myocyte growth ([4]; inhibitor by itself) was “had no effect on myocyte growth”. The “hypertrophic responses to PE and IL-1 (growth)” value ([4]; with PE or IL-1) was “enhanced the individual hypertrophic responses to both PE and IL-1”, the “basal SERCA2 promoter activity” value [5] was “increased the basal promoter activities” and the “basal αMyHC promoter activity” value [5] was “increased the basal promoter activities”. For the same molecule, the “basal βMyHC promoter activity” value [5] was “not that of βMyHC”, the “activation of ANF promoter by phenylephrine” value ([6]; phenylephrine 100 μM, TSA 85 nM, NaBut 5 mM, HC-toxin 5 ng/ml) was “did block the promoter's activation by phenylephrine treatment completely; also recorded: prevented the activation of the ANF promoter” and the “ANF promoter activity, inhibitor alone” value ([6]; unstimulated cardiomyocytes) was “did not activate the ANF promoter”.
